Assay results published in patent publication US10597388B2, “Pyridazinone herbicides” (FMC CORPORATION, priority 2014, dated 2020).

Tests used:
Test in all cases: Test E greenhouse herbicide test, pre- and postemergence
Type in all cases: in vivo
[1] = test system: kochia (Kochia scoparia)
Method in brief: (§1)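 Herbicidal effect was judged by eye relative to untreated plants 14 to 21 d after spraying, using 0 for no effect and 100 for complete control. Preemergence sprays went onto freshly seeded silt loam; postemergence sprays onto 2–18 cm seedlings.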

[2] = test system: panicum, fall (fall panicum, Panicum dichotomiflorum)
Method in brief: as §1

[3] = test system: crabgrass, large (large crabgrass, Digitaria sanguinalis); conditions: Preemergence
Method in brief: as §1

[4] = test system: goosegrass (Eleusine indica); conditions: Preemergence
Method in brief: as §1

[5] = test system: barnyardgrass (Echinochloa crus-galli)
Method in brief: as §1

[6] = test system: velvetleaf (Abutilon theophrasti); conditions: Preemergence
Method in brief: as §1

[7] = test system: ragweed (common ragweed, Ambrosia elatior)
Method in brief: as §1

[8] = test system: sandbur (southem sandbur, Cenchrus echinatus)
Method in brief: as §1

[9] = test system: beggarticks (hairy beggarticks, Bidens pilosa)
Method in brief: as §1

[10] = test system: johnsongrass (Sorghum halepense); conditions: Preemergence
Method in brief: as §1

[11] = test system: field bindweed (Convolvulus arvensis)
Method in brief: as §1

[12] = test system: surinam grass (Brachiaria decumbens); conditions: Preemergence
Method in brief: as §1

[13] = test system: momingglory (Ipomoea coccinea); conditions: Preemergence
Method in brief: as §1

[14] = test system: foxtail, giant (giant foxtail, Setaria faberii); conditions: Preemergence
Method in brief: as §1

[15] = test system: nightshade (eastern black nightshade, Solanum ptycanthum); conditions: Preemergence
Method in brief: as §1

[16] = test system: arrowleaf sida (Sida rhombifolia)
Method in brief: as §1

[17] = test system: nutsedge, yellow (yellow nutsedge, Cyperus esculentus); conditions: Preemergence
Method in brief: as §1

[18] = 62 g ai/ha, Postemergence, scale 0 to 100 (0 no effect, 100 complete control)
[19] = 62 g ai/ha, Preemergence, scale 0 to 100 (0 no effect, 100 complete control)
[20] = 125 g ai/ha, Postemergence, scale 0 to 100 (0 no effect, 100 complete control)
[21] = 250 g ai/ha, Postemergence, scale 0 to 100 (0 no effect, 100 complete control)
[22] = Postemergence, 31 g ai/ha, visual, scale 0 no effect to 100 complete control
[23] = Preemergence, 31 g ai/ha, scale 0 to 100, 0 no effect, 100 complete control
[24] = Preemergence, 125 g ai/ha, visual, scale 0 no effect to 100 complete control
[25] = Preemergence, 250 g ai/ha, visual, scale 0 no effect to 100 complete control
[26] = 125 g ai/ha, Preemergence, scale 0 to 100 (0 no effect, 100 complete control)
[27] = 62 g ai/ha, scale 0 to 100 (0 no effect, 100 complete control)
[28] = 31 g ai/ha, scale 0 to 100, 0 no effect, 100 complete control
[29] = 125 g ai/ha, visual, scale 0 no effect to 100 complete control
[30] = 250 g ai/ha, visual, scale 0 no effect to 100 complete control
[31] = 125 g ai/ha, scale 0 to 100 (0 no effect, 100 complete control)

Structure (SMILES): Cc1cc2ccccc2c(-c2c(O)c(C)nn(C)c2=O)c1C [Compound 34]
- Plant response rating, Kochia [1, 18]: 98
- Plant response rating, Kochia [1, 19]: 5
- Plant response rating, Kochia [1, 20]: 85
- Plant response rating, Kochia [1, 21]: 85
- Plant response rating, Kochia [1, 22]: 70
- Plant response rating, Kochia [1, 23]: 0
- Plant response rating, Kochia [1, 24]: 5
- Plant response rating, Kochia [1, 25]: 85
- Plant response rating, Panicum, Fall [2, 18]: 65
- Plant response rating, Panicum, Fall [2, 19]: 80
- Plant response rating, Panicum, Fall [2, 20]: 70
- Plant response rating, Panicum, Fall [2, 26]: 90
- Plant response rating, Panicum, Fall [2, 21]: 60
- Plant response rating, Panicum, Fall [2, 22]: 50
- Plant response rating, Panicum, Fall [2, 23]: 70
- Plant response rating, Panicum, Fall [2, 25]: 95
- Plant response rating, Crabgrass, Large [3, 27]: 0
- Plant response rating, Crabgrass, Large [3, 28]: 0
- Plant response rating, Crabgrass, Large [3, 29]: 50
- Plant response rating, Crabgrass, Large [3, 30]: 20
- Plant response rating, Goosegrass [4, 27]: 5
- Plant response rating, Goosegrass [4, 28]: 5
- Plant response rating, Goosegrass [4, 29]: 10
- Plant response rating, Goosegrass [4, 30]: 10
- Plant response rating, Barnyardgrass [5, 18]: 40
- Plant response rating, Barnyardgrass [5, 19]: 0
- Plant response rating, Barnyardgrass [5, 20]: 40
- Plant response rating, Barnyardgrass [5, 21]: 40
- Plant response rating, Barnyardgrass [5, 22]: 30
- Plant response rating, Barnyardgrass [5, 23]: 0
- Plant response rating, Barnyardgrass [5, 24]: 35
- Plant response rating, Barnyardgrass [5, 25]: 65
- Plant response rating, Velvetleaf [6, 27]: 90
- Plant response rating, Velvetleaf [6, 31]: 100
- Plant response rating, Velvetleaf [6, 28]: 20
- Plant response rating, Velvetleaf [6, 30]: 100
- Plant response rating, Ragweed [7, 18]: 85
- Plant response rating, Ragweed [7, 19]: 75
- Plant response rating, Ragweed [7, 20]: 90
- Plant response rating, Ragweed [7, 26]: 100
- Plant response rating, Ragweed [7, 21]: 100
- Plant response rating, Ragweed [7, 22]: 90
- Plant response rating, Ragweed [7, 23]: 70
- Plant response rating, Ragweed [7, 25]: 100
- Plant response rating, Sandbur [8, 18]: 80
- Plant response rating, Sandbur [8, 19]: 40
- Plant response rating, Sandbur [8, 20]: 85
- Plant response rating, Sandbur [8, 26]: 65
- Plant response rating, Sandbur [8, 21]: 90
- Plant response rating, Sandbur [8, 22]: 70
- Plant response rating, Sandbur [8, 23]: 0
- Plant response rating, Sandbur [8, 25]: 70
- Plant response rating, Beggarticks [9, 18]: 100
- Plant response rating, Beggarticks [9, 19]: 100
- Plant response rating, Beggarticks [9, 20]: 98
- Plant response rating, Beggarticks [9, 21]: 100
- Plant response rating, Beggarticks [9, 22]: 90
- Plant response rating, Beggarticks [9, 23]: 90
- Plant response rating, Beggarticks [9, 24]: 100
- Plant response rating, Beggarticks [9, 25]: 100
- Plant response rating, Johnsongrass [10, 27]: 0
- Plant response rating, Johnsongrass [10, 28]: 0
- Plant response rating, Johnsongrass [10, 29]: 0
- Plant response rating, Johnsongrass [10, 30]: 0
- Plant response rating, Field Bindweed [11, 18]: 80
- Plant response rating, Field Bindweed [11, 19]: 50
- Plant response rating, Field Bindweed [11, 20]: 80
- Plant response rating, Field Bindweed [11, 21]: 95
- Plant response rating, Field Bindweed [11, 22]: 70
- Plant response rating, Field Bindweed [11, 23]: 5
- Plant response rating, Field Bindweed [11, 24]: 40
- Plant response rating, Field Bindweed [11, 25]: 60
- Plant response rating, Surinam Grass [12, 27]: 75
- Plant response rating, Surinam Grass [12, 31]: 95
- Plant response rating, Surinam Grass [12, 28]: 5
- Plant response rating, Surinam Grass [12, 30]: 80
- Plant response rating, Morningglory [13, 27]: 25
- Plant response rating, Morningglory [13, 31]: 35
- Plant response rating, Morningglory [13, 28]: 0
- Plant response rating, Morningglory [13, 30]: 90
- Plant response rating, Foxtail, Giant [14, 27]: 40
- Plant response rating, Foxtail, Giant [14, 28]: 5
- Plant response rating, Foxtail, Giant [14, 29]: 40
- Plant response rating, Foxtail, Giant [14, 30]: 65
- Plant response rating, Nightshade [15, 27]: 25
- Plant response rating, Nightshade [15, 31]: 98
- Plant response rating, Nightshade [15, 28]: 0
- Plant response rating, Nightshade [15, 30]: 95
- Plant response rating, Arrowleaf Sida [16, 18]: 60
- Plant response rating, Arrowleaf Sida [16, 19]: 20
- Plant response rating, Arrowleaf Sida [16, 20]: 70
- Plant response rating, Arrowleaf Sida [16, 21]: 75
- Plant response rating, Arrowleaf Sida [16, 22]: 65
- Plant response rating, Arrowleaf Sida [16, 23]: 0
- Plant response rating, Arrowleaf Sida [16, 24]: 65
- Plant response rating, Arrowleaf Sida [16, 25]: 80
- Plant response rating, Nutsedge, Yellow [17, 27]: 80
- Plant response rating, Nutsedge, Yellow [17, 31]: 40
- Plant response rating, Nutsedge, Yellow [17, 28]: 0
- Plant response rating, Nutsedge, Yellow [17, 30]: 80
